# Assay results: patent US4100284A, “1,4-Dioxo- and 4-oxoquinoxaline-2-carboxaldehyde sulfonylhydrazones and certain derivatives thereof” (Pfizer Inc., priority 1977, dated 1978)
# Legend:
# [1] = system: Salmonella cholerasuis; experiment: In vivo protection of mice against a lethal challenge of Salmonella cholerasuis; settings: at 25 mg./Kg., multiple dosing
# Method: The compounds of formula (I) also show antibacterial activity in vivo. In determining such activity, the test compound is administered to mice which have been infected by intraperitoneal injection of a lethal inoculum of pathogenic bacteria. The test compound is administered using a multiple dosing regimen, and using either the oral (PO) or the subcutaneous (SC) route. The inoculum of bacteria varies from one to about ten times the amount needed to kill 100% of the mice, under the conditions of the test. At the end of the test, the activity of a compound is assessed by counting the number of survivors among the treated animals. Results are also given in Table I, wherein the ability of the compound to protect mice against a lethal challenge of Salmonella cholerasuis is presented.
# [2] = system: Strep. pyogenes; experiment: In vitro antibacterial activity, two-fold serial dilution in Brain-Heart Infusion broth (MIC); format: cell-based; settings: Streptococcus pyogenes, anaerobic, overnight
# Method: (§1) The broth is inoculated with bacteria, and with the test compound of formula (I), and then it is incubated overnight under anaerobic conditions. On the next day, the test is read visually. The minimum inhibitory concentration (MIC) of test compound is the lowest concentration which prevents turbidity, i.e., which prevents growth of the microoganism.
# [3] = system: Pasteurella multocida; experiment: as above; format: cell-based; settings: anaerobic, overnight
# Method: as §1
# [4] = system: Salmonella cholerasuis; experiment: as above; format: cell-based; settings: anaerobic, overnight
# Method: as §1
# [5] = system: Staph. aureus; experiment: as above; format: cell-based; settings: Staphylococcus aureus, anaerobic, overnight
# Method: as §1
# [6] = system: E. Coli; experiment: as above; format: cell-based; settings: Escherichia coli, anaerobic, overnight
# Method: as §1
SMILES,"% Survivors vs. Sal. Cholarasuis, PO [1] [%]","% Survivors vs. Sal. Cholarasuis, SC [1] [%]",MIC [2] [µg/mL],MIC [3] [µg/mL],MIC [4] [µg/mL],MIC [5] [µg/mL],MIC [6] [µg/mL]
"Cc1ccc(S(=O)(=O)NN=Cc2c[n+]([O-])c3ccccc3[n+]2[O-])cc1 [N → O, H, H, 4-CH3 C6 H4, 1,4-Dioxoquinoxaline-2-carboxaldehyde p-Toluenesulfonylhydrazone]",30,100,12.5,3.12,6.25,25,1.56
"O=S(=O)(NN=Cc1c[n+]([O-])c2ccccc2[n+]1[O-])c1ccc(F)cc1 [N → O, H, H, 4-FC6 H4]",10,30,12.5,3.12,6.25,25,3.12
"O=S(=O)(NN=Cc1c[n+]([O-])c2ccccc2[n+]1[O-])c1ccccc1 [N → O, H, H, C6 H5, 1,4-Dioxoquinoxaline-2-carboxaldehyde Benzenesulfonylhydrazone]",–,–,25,12.5,12.5,100,12.5
"CS(=O)(=O)NN=Cc1c[n+]([O-])c2ccccc2[n+]1[O-] [N → O, H, H, CH3]",10,60,12.5,12.5,6.25,25,3.12
"Cc1ccc(S(=O)(=O)NN=Cc2c[n+]([O-])c3ccccc3n2)cc1 [N, H, H, 4-CH3 C6 H4, 4-Oxoquinoxaline-2-carboxaldehyde p-Toluenesulfonylhydrazone]",60,100,12.5,3.12,3.12,25,3.12
"COc1ccc(S(=O)(=O)NN=Cc2c[n+]([O-])c3ccccc3n2)cc1 [N, H, H, 4-CH3 OC6 H4, 4-Oxoquinoxaline-2-carboxaldehyde p-Methoxybenzenesulfonylhydrazone]",–,–,6.25,1.56,6.25,12.5,3.12
